ChEMBL document CHEMBL1201862, “PubChem BioAssay data set” (2004)
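Method: 48-hour compound exposure of cells in 96-well plates, five concentrations, linear interpolation of endpoints. At the GI50, growth is halved.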 Calls of active or inactive are those of the source. No stated cut-off is given here; in the data, active = GI50 up to about 1.1 µM and inactive = higher.

What was measured:
Experiment in all cases: DTP human tumour cell line panel, 48 h
[1] = system: LXFL 529
[2] = system: A498
[3] = system: COLO 205
[4] = system: NCI-H460
[5] = system: HOP-62
[6] = system: EKVX
[7] = system: HOP-92
[8] = system: RPMI-8226
[9] = system: SN12C
[10] = system: SK-OV-3
[11] = system: OVCAR-4
[12] = system: HCT-116
[13] = system: NCI-H226
[14] = system: NCI-H23
[15] = system: OVCAR-5

Measured: GI50

c1cc(N(CCn2cccn2)CCn2cccn2)cc(N(CCn2cccn2)CCn2cccn2)c1
inactive: [1] > 100 µM | [2] > 100 µM | [3] > 100 µM | [4] > 100 µM | [5] > 100 µM | [6] > 100 µM | [7] > 100 µM | [8] > 100 µM | [9] > 100 µM | [10] > 100 µM | [11] > 100 µM | [12] > 100 µM

Cc1ccc(S(=O)(=O)N(/N=C(\N)Oc2ccc(Cl)cc2)C(=N)Oc2ccc(Cl)cc2)cc1
inactive: [1] > 100 µM | [13] > 100 µM | [2] > 100 µM | [3] > 100 µM | [4] > 100 µM | [14] > 100 µM | [5] > 100 µM | [6] > 100 µM | [7] > 100 µM | [15] > 100 µM | [9] > 100 µM | [10] > 100 µM | [11] > 100 µM | [12] > 100 µM

CC(=O)O[C@]12CCCCC1C1(O)C(O)CCCCC12 (stereo not given in full)
inactive: [1] > 100 µM | [13] > 100 µM | [3] > 100 µM | [4] > 100 µM | [14] > 100 µM | [5] > 100 µM | [6] > 100 µM | [8] > 100 µM | [9] > 100 µM | [10] > 100 µM | [11] > 100 µM | [12] > 100 µM

Oc1ccncc1-c1cnccc1O
inactive: [1] > 100 µM | [13] > 100 µM | [2] > 100 µM | [3] > 100 µM | [4] 37.5 µM | [14] > 100 µM | [6] > 100 µM | [7] > 100 µM | [8] > 100 µM | [9] > 100 µM | [10] > 100 µM | [12] > 100 µM

Cc1cc(C)cc(NC(=O)CCC(=O)C2CCC/C2=N\NC(=O)C(=O)NN)c1 (stereo not given)
inactive: [1] > 100 µM | [13] > 100 µM | [2] > 100 µM | [3] > 100 µM | [4] > 100 µM | [14] > 100 µM | [6] > 100 µM | [8] > 100 µM | [15] > 100 µM | [9] > 100 µM | [10] > 100 µM | [11] > 100 µM | [12] > 100 µM

N#CC(=C1C=CC(=NO)C=C1)c1ccc(Cl)cc1
inactive: [1] 4.97 µM | [2] 67.3 µM | [3] 16.8 µM | [4] 18.2 µM | [14] 23.7 µM | [5] 15.3 µM | [7] 20 µM | [8] 2.6 µM | [15] 11.9 µM | [9] 16.5 µM | [10] 22.2 µM | [11] 22.5 µM | [12] 7.52 µM

CC1(C)CC(N2CCN(C3CC(C)(C)NC(C)(C)C3)CC2)CC(C)(C)N1
inactive: [1] > 100 µM | [2] > 100 µM | [4] > 100 µM | [14] > 100 µM | [5] > 100 µM | [6] > 100 µM | [7] > 100 µM | [8] > 100 µM | [15] > 100 µM | [9] > 100 µM | [10] > 100 µM | [11] > 100 µM | [12] > 100 µM

Cc1ccc(S(=O)(=O)c2ccc(C)cc2[N+](=O)[O-])c([N+](=O)[O-])c1
inactive: [1] > 100 µM | [13] > 100 µM | [3] > 100 µM | [4] > 100 µM | [14] > 100 µM | [5] > 100 µM | [6] > 100 µM | [8] > 100 µM | [15] > 100 µM | [9] > 100 µM | [11] 89.9 µM | [12] > 100 µM

C#CCN(Cc1ccc2nc(-c3ccccc3)c(N)nc2c1)c1cc(OC)c(OC)c(OC)c1
inactive: [1] 19.3 µM | [13] 16.7 µM | [3] 21.2 µM | [4] 22 µM | [14] 25.1 µM | [5] 39.2 µM | [6] 31.2 µM | [8] 11.2 µM | [15] 48.5 µM | [9] 32.1 µM | [11] 27.9 µM | [12] 19.2 µM

COc1cc2c3cc1Oc1c(OC)c(OC)cc4c1[C@@H](Cc1ccc(O)c(c1)Oc1ccc(cc1)C[C@@H]3N(C)CC2)N(C)CC4.c1ccccc1
inactive: [1] 12.4 µM | [13] 22.2 µM | [2] 20.3 µM | [4] 25.2 µM | [14] 24.1 µM | [5] 18.1 µM | [6] 13.9 µM | [7] 8.28 µM | [8] 16.3 µM | [15] 30.6 µM | [9] 18.7 µM | [12] 9.16 µM

CCOC(=O)/C(=C/c1cc(OC)ccc1OC)CC(=O)O
inactive: [1] > 100 µM | [2] > 100 µM | [3] > 100 µM | [4] > 100 µM | [14] > 100 µM | [5] > 10 µM | [6] > 100 µM | [7] > 100 µM | [9] > 100 µM | [10] > 100 µM | [11] > 100 µM | [12] > 100 µM

O=C1CC(c2ccccc2)=Nc2ccccc2N1
inactive: [1] > 100 µM | [13] > 100 µM | [2] 24.7 µM | [3] 98.9 µM | [4] 42 µM | [14] > 100 µM | [5] > 100 µM | [6] > 100 µM | [7] 81.1 µM | [15] > 100 µM | [9] > 100 µM | [10] > 100 µM | [11] > 100 µM | [12] 86.5 µM

COc1cc(C2C(Cl)C(=O)N2n2cnc3ccccc3c2=O)ccc1O (stereo not given)
inactive: [1] > 100 µM | [13] > 100 µM | [3] > 100 µM | [4] > 100 µM | [14] 39.1 µM | [5] > 100 µM | [6] > 100 µM | [8] 60 µM | [15] > 100 µM | [9] 89.5 µM | [10] 68.9 µM | [11] 94.4 µM | [12] > 100 µM

[O-][S+]1CSSC1
inactive: [1] 13.5 µM | [13] 26.3 µM | [2] 43.8 µM | [3] 17.1 µM | [14] 28.7 µM | [5] 36.3 µM | [6] 31.3 µM | [7] 26.1 µM | [15] 16.8 µM | [9] 12 µM | [10] 24.3 µM | [11] 16.7 µM | [12] 16.2 µM

O=[N+]([O-])c1ccc(/C=C/c2csnn2)cc1
inactive: [1] > 100 µM | [13] > 100 µM | [4] > 100 µM | [14] > 100 µM | [5] > 100 µM | [6] > 100 µM | [7] 70.5 µM | [8] > 100 µM | [15] > 100 µM | [9] > 100 µM | [10] > 100 µM | [11] > 100 µM | [12] > 100 µM
